Target: human NaV1.8 (Homo sapiens (Human), UniProt Q9Y5Y9)
Experiment: Nav1.8 Qube automated patch-clamp assay
Format: cell-based
Details: human NaV1.8 stably expressed in HEK 293 cells; automated 384-well patch-clamp; resting or inactivated state not specified
In short: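 IC50 values from Hill-equation fits of offline percent inhibition: the 1st pulse gave resting and the 10th pulse inactivated-state inhibition. Stimulus was a 10 s, 1 Hz train to 10 mV (holding −90 mV, −67 mV interpulse) applied at room temperature to HEK293 cells stably expressing human NaV1.8 (Qube).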

human NaV1.8, sequence (Q9Y5Y9 whole entry): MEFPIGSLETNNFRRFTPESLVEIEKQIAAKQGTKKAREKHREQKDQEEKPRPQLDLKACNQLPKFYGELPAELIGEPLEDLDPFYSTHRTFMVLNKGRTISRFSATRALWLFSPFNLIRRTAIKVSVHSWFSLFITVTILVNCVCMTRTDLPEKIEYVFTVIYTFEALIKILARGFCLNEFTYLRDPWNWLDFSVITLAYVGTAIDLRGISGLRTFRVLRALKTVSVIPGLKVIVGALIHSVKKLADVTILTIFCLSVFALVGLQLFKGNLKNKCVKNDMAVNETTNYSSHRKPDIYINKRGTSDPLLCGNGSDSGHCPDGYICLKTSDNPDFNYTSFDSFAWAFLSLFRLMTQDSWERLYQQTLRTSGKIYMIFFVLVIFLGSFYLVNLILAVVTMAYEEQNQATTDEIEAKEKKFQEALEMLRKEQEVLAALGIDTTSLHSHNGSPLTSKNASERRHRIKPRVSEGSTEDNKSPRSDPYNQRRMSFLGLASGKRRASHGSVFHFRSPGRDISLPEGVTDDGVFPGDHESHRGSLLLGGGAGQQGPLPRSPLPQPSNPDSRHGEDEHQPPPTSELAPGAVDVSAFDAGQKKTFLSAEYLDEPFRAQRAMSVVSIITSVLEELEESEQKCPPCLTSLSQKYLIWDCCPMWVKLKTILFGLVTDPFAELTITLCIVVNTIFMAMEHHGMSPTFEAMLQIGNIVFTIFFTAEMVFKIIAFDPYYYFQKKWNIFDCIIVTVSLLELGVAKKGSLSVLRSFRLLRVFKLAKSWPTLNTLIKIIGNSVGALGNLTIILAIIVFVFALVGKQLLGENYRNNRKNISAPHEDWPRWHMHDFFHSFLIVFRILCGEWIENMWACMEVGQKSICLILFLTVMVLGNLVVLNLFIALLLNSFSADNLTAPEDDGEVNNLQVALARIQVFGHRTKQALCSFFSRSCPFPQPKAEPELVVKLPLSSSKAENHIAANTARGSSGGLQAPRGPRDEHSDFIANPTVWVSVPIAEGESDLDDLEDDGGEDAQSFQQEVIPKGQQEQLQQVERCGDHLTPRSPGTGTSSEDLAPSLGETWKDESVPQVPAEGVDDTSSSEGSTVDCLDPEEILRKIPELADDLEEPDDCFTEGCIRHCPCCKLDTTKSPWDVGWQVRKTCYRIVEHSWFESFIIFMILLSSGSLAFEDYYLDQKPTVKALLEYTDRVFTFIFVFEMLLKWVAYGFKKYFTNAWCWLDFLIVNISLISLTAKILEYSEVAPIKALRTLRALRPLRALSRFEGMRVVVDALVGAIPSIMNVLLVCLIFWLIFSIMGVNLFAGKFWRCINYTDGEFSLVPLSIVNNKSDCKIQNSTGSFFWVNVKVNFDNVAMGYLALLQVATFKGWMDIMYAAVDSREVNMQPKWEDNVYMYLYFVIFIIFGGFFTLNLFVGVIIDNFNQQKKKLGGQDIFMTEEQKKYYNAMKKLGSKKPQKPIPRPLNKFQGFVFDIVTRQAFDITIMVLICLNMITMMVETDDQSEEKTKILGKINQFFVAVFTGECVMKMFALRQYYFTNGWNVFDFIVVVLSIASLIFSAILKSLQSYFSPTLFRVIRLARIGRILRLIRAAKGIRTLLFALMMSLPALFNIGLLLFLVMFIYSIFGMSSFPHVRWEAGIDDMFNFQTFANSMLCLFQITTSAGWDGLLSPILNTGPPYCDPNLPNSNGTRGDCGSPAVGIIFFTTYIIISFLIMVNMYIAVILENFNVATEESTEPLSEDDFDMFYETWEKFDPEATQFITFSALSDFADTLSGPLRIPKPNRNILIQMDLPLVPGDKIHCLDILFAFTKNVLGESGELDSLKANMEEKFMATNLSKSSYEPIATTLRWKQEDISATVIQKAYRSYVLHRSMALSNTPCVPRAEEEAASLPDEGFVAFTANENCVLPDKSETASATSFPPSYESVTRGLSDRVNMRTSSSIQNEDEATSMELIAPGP

Row | SMILES | IC50
1 | N#Cc1cc(C(NC(=O)[C@@H]2CNC(=O)N2)c2ccc(OC(F)(F)F)cc2)ccc1Cl (single isomer, unassigned) [Example 57A, (S)-N-((R or S)-(4-chloro-3-cyanophenyl)(4-(trifluoromethoxy)phenyl)methyl)-2-oxoimidazolidine-4-carboxamide] | 3.5 nM
2 | N#Cc1cc(C(NC(=O)[C@@H]2CNC(=O)N2)c2ccc(OC(F)(F)F)cc2)ccc1Cl (single isomer, unassigned) [Example 57B, (S)-N-((R or S)-(4-chloro-3-cyanophenyl)(4-(trifluoromethoxy)phenyl)methyl)-2-oxoimidazolidine-4-carboxamide] | 2.4 nM
3 | O=C1NC[C@@H](C(=O)NC(c2ccc(F)c(Cl)c2F)C2CCCCN2CC(F)(F)F)N1 (single isomer, unassigned) [Example 58A, (S)-N-((R or S)-(3-chloro-2,4-difluorophenyl) ((R or S)-1-(2,2,2-trifluoroethyl)piperidin-2-yl)methyl)-2-oxoimidazolidine-4-carboxamide] | 2010 nM
4 | O=C1NC[C@@H](C(=O)NC(c2ccc(F)c(Cl)c2F)C2CCCCN2CC(F)(F)F)N1 (single isomer, unassigned) [Example 58B, (S)-N-((R or S)-(3-chloro-2,4-difluorophenyl) ((R or S)-1-(2,2,2-trifluoroethyl)piperidin-2-yl)methyl)-2-oxoimidazolidine-4-carboxamide] | 35 nM
5 | O=C1NC[C@@H](C(=O)NC(c2ccc(F)c(Cl)c2F)C2CCCCN2CC(F)(F)F)N1 (single isomer, unassigned) [Example 58C, (S)-N-((R or S)-(3-chloro-2,4-difluorophenyl) ((R or S)-1-(2,2,2-trifluoroethyl)piperidin-2-yl)methyl)-2-oxoimidazolidine-4-carboxamide] | 130 nM
6 | O=C1NC[C@@H](C(=O)NC(c2ccc(F)c(Cl)c2F)C2CCCCN2CC(F)(F)F)N1 (single isomer, unassigned) [Example 58D, (S)-N-((R or S)-(3-chloro-2,4-difluorophenyl) ((R or S)-1-(2,2,2-trifluoroethyl)piperidin-2-yl)methyl)-2-oxoimidazolidine-4-carboxamide] | 787 nM

Results, then the compound that gave them:

Row | IC50 | SMILES
7 | 44 nM | O=C1NC[C@@H](C(=O)NC(c2ccc(Cl)cc2)c2cc(C(F)(F)F)c(F)cn2)N1 (single isomer, unassigned) [Example 59A, (S)-N-((R or S)-(4-chlorophenyl)(5-fluoro-4-(trifluoromethyl)pyridin-2-yl)methyl)-2-oxoimidazolidine-4-carboxamide]
8 | 62 nM | O=C1NC[C@@H](C(=O)NC(c2ccc(Cl)cc2)c2cc(C(F)(F)F)c(F)cn2)N1 (single isomer, unassigned) [Example 59B, (S)-N-((R or S)-(4-chlorophenyl)(5-fluoro-4-(trifluoromethyl)pyridin-2-yl)methyl)-2-oxo-imidazolidine-4-carboxamide]
9 | 3.1 nM | N#Cc1ccc(C(NC(=O)[C@@H]2CNC(=O)N2)c2ccc(Cl)c(C(F)(F)F)c2)cc1 (single isomer, unassigned) [Example 60A, (S)-N-((R or S)-(4-chloro-3-(trifluoromethyl)-phenyl)(4-cyanophenyl)-methyl)-2-oxo-imidazolidine-4-carboxamide]
10 | 3.8 nM | N#Cc1ccc(C(NC(=O)[C@@H]2CNC(=O)N2)c2ccc(Cl)c(C(F)(F)F)c2)cc1 (single isomer, unassigned) [Example 60B, (S)-N-((R or S)-(4-chloro-3-(trifluoromethyl)-phenyl)(4-cyanophenyl)-methyl)-2-oxo-imidazolidine-4-carboxamide]
11 | 8 nM | O=C1NC[C@@H](C(=O)NC(c2ccc(F)c(Cl)c2)c2ccc(Cl)c(C(F)(F)F)n2)N1 (single isomer, unassigned) [Example 62A, (S)-N-((R or S)-(3-chloro-4-fluorophenyl)(5-chloro-6-(trifluoromethyl)pyridin-2-yl)methyl)-2-oxoimidazolidine-4-carboxamide]
12 | 0.4 nM | O=C1NC[C@@H](C(=O)NC(c2ccc(F)c(Cl)c2)c2ccc(Cl)c(C(F)(F)F)n2)N1 (single isomer, unassigned) [Example 62B, (S)-N-((R or S)-(3-chloro-4-fluorophenyl)(5-chloro-6-(trifluoromethyl)pyridin-2-yl)methyl)-2-oxoimidazolidine-4-carboxamide]
13 | 4.2 nM | O=C1NC[C@@H](C(=O)NC(c2ccc(F)c(C(F)F)n2)c2ccc(F)c(Cl)c2F)N1 (single isomer, unassigned) [Example 63A, (S)-N-((R or S)-(3-chloro-2,4-difluorophenyl)(6-(difluoromethyl)-5-fluoropyridin-2-yl)methyl)-2-oxoimidazolidine-4-carboxamide]
14 | 16 nM | O=C1NC[C@@H](C(=O)NC(c2ccc(F)c(C(F)F)n2)c2ccc(F)c(Cl)c2F)N1 (single isomer, unassigned) [Example 63B, (S)-N-((R or S)-(3-chloro-2,4-difluorophenyl)(6-(difluoromethyl)-5-fluoropyridin-2-yl)methyl)-2-oxoimidazolidine-4-carboxamide]
15 | 79 nM | O=C1NC[C@@H](C(=O)NC(c2cnc(OC(F)F)nc2)c2ccc(F)c(Cl)c2F)N1 (single isomer, unassigned) [Example 64A, (S)-N-((R or S)-(3-chloro-2,4-difluorophenyl)(2-(difluoromethoxy)pyrimidin-5-yl)methyl)-2-oxoimidazolidine-4-carboxamide]
16 | 805 nM | O=C1NC[C@@H](C(=O)NC(c2cnc(OC(F)F)nc2)c2ccc(F)c(Cl)c2F)N1 (single isomer, unassigned) [Example 64B, (S)-N-((R or S)-(3-chloro-2,4-difluorophenyl)(2-(difluoromethoxy)pyrimidin-5-yl)methyl)-2-oxoimidazolidine-4-carboxamide]
17 | 16200 nM | CC(N1CC(C)(C(NC(=O)[C@@H]2CNC(=O)N2)c2ccc(F)c(Cl)c2F)C1)C(F)(F)F (single isomer, unassigned) [Example 65A, (S)—N—((R or S)-(3-chloro-2,4-difluorophenyl)(3-methyl-1-((R or S)-1,1,1-trifluoropropan-2-yl)azetidin-3-yl)methyl)-2-oxoimidazolidine-4-carboxamide]
18 | 302 nM | CC(N1CC(C)(C(NC(=O)[C@@H]2CNC(=O)N2)c2ccc(F)c(Cl)c2F)C1)C(F)(F)F (single isomer, unassigned) [Example 65B, (S)—N—((R or S)-(3-chloro-2,4-difluorophenyl)(3-methyl-1-((R or S)-1,1,1-trifluoropropan-2-yl)azetidin-3-yl)methyl)-2-oxoimidazolidine-4-carboxamide]
19 | 309 nM | CC(N1CC(C)(C(NC(=O)[C@@H]2CNC(=O)N2)c2ccc(F)c(Cl)c2F)C1)C(F)(F)F (single isomer, unassigned) [Example 65C, (S)—N—((R or S)-(3-chloro-2,4-difluorophenyl)(3-methyl-1-((R or S)-1,1,1-trifluoropropan-2-yl)azetidin-3-yl)methyl)-2-oxoimidazolidine-4-carboxamide]
20 | 7760 nM | CC(N1CC(C)(C(NC(=O)[C@@H]2CNC(=O)N2)c2ccc(F)c(Cl)c2F)C1)C(F)(F)F (single isomer, unassigned) [Example 65D, (S)—N—((R or S)-(3-chloro-2,4-difluorophenyl)(3-methyl-1-((R or S)-1,1,1-trifluoropropan-2-yl)azetidin-3-yl)methyl)-2-oxoimidazolidine-4-carboxamide]
